Source: patent publication US7951551B2, “Kits and reagents for luciferase detection assay system” (PerkinElmer Life and Analytical Sciences B.V., priority 2005, dated 2011)
Read-outs that look alike come from different tables or passages of the source.

Columns and labels:
[1] = target: Photinus pyralis luciferase (Photinus pyralis, UniProt P08659); details: compared to freshly prepared luciferase solution; 10% without DTT; cited from earlier work
luciferase [2] = target: T1, luciferase (Photinus pyralis, UniProt P08659); test: Light yield of the luciferin-luciferase reaction (luciferase detection, TopCount luminescence, 0-420 min); format: biochemical, firefly; details: for final concentration up to which light yield increases: with 0.25 M phosphate
Excerpt: A stock solution of 4.0 M Tris (source of ammonium ions) was neutralized with phosphoric acid (H3PO4) until a pH of 7.0 was reached. This stock buffer solution contained 2.0 M of phosphate. The stock solution was used to make a range of assay reagents comprising, respectively, 2.2, 1.1, 0.55, 0.275, 0.138, 0.069, 0.034 and 0.017 M Tris. The phosphate concentration in these assay reagents was […] phosphate, respectively.
Each reagent was checked for its pH to be 7.0 and was adjusted with small amounts of H3PO4 (several μl of a 2 M H3PO4 solution) if needed. The phosphate anions added in this manner had no significant effect on the above reported phosphate concentration. Each assay reagent was supplemented with D-luciferin, ATP and sodium-thiosulfate (Na2S2O3) by the addition of 250 μl of a freshly prepared stock solution (30 mM ATP, 3 mM D-luciferin, 100 mM thiosulfate adjusted to pH=7.0 with 1 M NaOH) to 2250 μl of assay reagent.
Luciferase was lyophilized in Dulbecco's-PBS with Mg and Ca (D'PBS^++) containing 0.05 g/ml trehalose and 0.016 g/ml BSA). Luciferase samples were prepared by reconstituting lyophilized luciferase in 200 μl water. The resulting solution was then diluted 100-fold by adding 150 μl of the reconstituted luciferase to 15 ml PBS (8.1 mM NaH2PO4, 1.5 mM KH2PO4, 2.7 mM KCl and 137 mM NaCl) containing 5 mM MgCl2, 5 mM CaCl2, 5 mM EDTA, 0.4% Thesit (a non-ionic detergent) and 0.1% bovine serum albumin (BSA). This yielded the “luciferase sample” solution which contained 27 ng/ml of luciferase.
The microplate was shaken for 10 seconds at 1100 rpm on a microplate-shaker and then immediately placed in a TopCount®-NXT Microplate Scintillation and Luminescence Counter. The resulting luminescent light signal was measured immediately after loading the microplate into the counter. The measurement was repeated after 5 and 10 minutes.
Final Tris concentrations in the different reaction mixtures were: 1.0, 0.5, 0.25, 0.125, 0.063, 0.031, 0.016 and 0.008 M. The phosphate concentrations were 0.5, 0.25, 0.125, 0.063, 0.031, 0.016, 0.008 and 0.004 M phosphate ions respectively. Final Mg^2+, D-luciferin, ATP, thiosulfate and luciferase concentrations in the reaction mixtures were 2.5 mM, 150 μM, 1.5 mM, 5 mM and 14 pg/μl, respectively.
FIG. 1 illustrates the effect of increasing Tris-phosphate concentrations in the luciferin-luciferase reaction mixture on the initial height and the decay of the light signal. To compare the total light yield (expressed as 10^9 counts) of each reaction mixture the areas under the curves were calculated by integrating the equations of the curves between 0 and 420 minutes. These equations of the curves were obtained using the option ‘trend line with equation’ of Microsoft Excel® software.
Stock solutions of 4.0 M ethanolamine (H2NCH2CH2OH) and 3.0 M ammonium-phosphate ((NH4)2HPO4) were neutralized with phosphoric acid (H3PO4) until pH 7.0 was reached. Dilutions were made in the same manner as described in example 1. Furthermore, all methods and other chemicals used to create the assay mixture and to test this for its light yield in a luciferin-luciferase reaction, were standardized and thus the same as in example 1. Final ethanolamine concentrations in the assay were 1.0, 0.5, 0.25, 0.125, 0.063, 0.031, 0.016 and 0.008 M, and 0.5, 0.25, 0.125, 0.063, 0.031, 0.016, 0.008 and 0.004 M phosphate, respectively. According to the present invention, a final concentration of 1M ethanolamine is assumed to provide the aqueous, neutral reaction mixture with 1M of ammonium ions. Thus, the concentration of ammonium ions in the reaction mixture is regarded to be identical to that of the source of ammonium ions. […]
Quantification of the reaction kinetics through surface area calculation under the curves is shown in Table 4 (ethanolamine-phosphate dilutions) and Table 5 (for ammonium-phosphate dilutions). […]
Target sequence in this assay (P08659 whole entry): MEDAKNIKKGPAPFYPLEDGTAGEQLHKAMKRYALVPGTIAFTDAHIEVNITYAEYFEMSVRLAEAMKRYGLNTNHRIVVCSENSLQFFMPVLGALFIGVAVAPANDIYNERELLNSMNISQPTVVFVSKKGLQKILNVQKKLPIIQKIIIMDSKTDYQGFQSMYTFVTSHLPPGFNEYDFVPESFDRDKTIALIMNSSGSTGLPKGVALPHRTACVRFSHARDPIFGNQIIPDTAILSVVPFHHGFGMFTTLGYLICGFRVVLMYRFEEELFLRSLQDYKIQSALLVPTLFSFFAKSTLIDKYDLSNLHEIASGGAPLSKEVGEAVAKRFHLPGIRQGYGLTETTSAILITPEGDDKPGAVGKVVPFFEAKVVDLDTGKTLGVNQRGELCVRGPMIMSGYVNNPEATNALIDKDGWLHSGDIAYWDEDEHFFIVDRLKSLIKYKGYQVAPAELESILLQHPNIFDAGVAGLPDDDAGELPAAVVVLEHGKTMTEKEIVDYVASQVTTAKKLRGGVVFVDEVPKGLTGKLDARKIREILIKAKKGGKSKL

[3] = cited from earlier work; for pKa (D/° C.): temperature coefficient of pKa, in brackets
luciferase [4] = target: T1, luciferase; details: CoA in the assay reagent (U.S. Pat. No. 5,283,179); cited from earlier work
Target sequence in this assay (P08659 whole entry): as above

luciferase [5] = target: T1, luciferase; design: host or cells: eukaryotic cells (unspecified); details: 1% detergent, chemical lysis of eukaryotic cells; cited from earlier work
Target sequence in this assay (P08659 whole entry, species assumed): as the sequence (P08659 whole entry) above

luciferase [6] = target: T1, luciferase; details: luciferase assay, up to 100 mM Tris-phosphate, integral 1-420 minutes
Target sequence in this assay (P08659 whole entry): as above
Protocol: (§1) For this experiment 16 different reagent mixtures were prepared; 8 mixtures (for the ATP assay) contained a large amount of luciferase, a small amount of ATP and increasing Tris-phosphate concentrations and 8 mixtures (for the luciferase assay) contained a large amount of ATP, a small amount of luciferase and increasing amounts of Tris-phosphate. To reduce variances that might be introduced by small concentrations differences between the reagents, all reagents were made from the same stock solutions where possible.
A “luciferase sample” was prepared by reconstituting a lyophilized luciferase control sample (PerkinElmer Inc.) in H2O and diluting this in Dulbecco's PBS with Ca/Mg (D'PBS^++) to a 1.0×10^−7 g/l luciferase solution.
(§2) Likewise, in the same microplate the reaction kinetics when assaying for luciferase were measured by pipetting 100 μl of each Tris-phosphate concentration reagent with ATP, and adding 100 μl of “luciferase sample”.
(§3) The microplate was shaken for 10 seconds on a microplate-shaker and sealed with TopSeal-A™ (PerkinElmer Inc.). […] The luminescent light signal was immediately measured, meaning about 1 minute after mixing reagent and sample, and after 5 and 10 minutes. Hereafter the signal was measured repeatedly with 15 minute intervals to a total time of 420 minutes. […] The emitted light was quantified as counts per second (cps), count time 3 seconds per well.

luciferase [7] = target: T1, luciferase; details: ATP assay, higher Tris-phosphate ion concentrations, integral 1-420 minutes
Target sequence in this assay (P08659 whole entry): as above
Protocol: as §1
An “ATP sample” was prepared by diluting a reconstituted lyophilized ATP standard (PerkinElmer Inc.) in D'PBS^++ resulting in a 1.0×10^−8 mM ATP solution.
as §2, §3

[8] = cited from earlier work
luciferase [9] = target: T1, luciferase; test: Light yield of the luciferin-luciferase reaction (luciferase detection, TopCount luminescence, 0-420 min); format: biochemical, firefly; details: 0.5 mM reducing agent, 0.5 M Tris and 0.25 M phosphate
Target sequence in this assay (P08659 whole entry): as above

[10] = 5 mM reducing agent, 0.5 M Tris and 0.25 M phosphate

Photinus pyralis luciferase, sequence (P08659 whole entry): as above

In the case of O[C@H](CS)[C@H](O)CS (racemic) [DTT, dithiothreitol], the “luciferase activity maintained in aged luciferase solution” value [1] is listed as 50% and the “Light Yield” value (luciferase [2]; [10]) is listed as 167.5 10^9counts.

With NCCO [Ethanolamine, ethanolamine] the “Light Yield” value (luciferase [2]; 0.008 M ethanolamine, 0.004 M phosphate, pH 7.0) was 41.6 10^9counts, the “Light Yield” value (luciferase [2]; 0.016 M ethanolamine, 0.008 M phosphate, pH 7.0) was 49.6 10^9counts and the “Light Yield” value (luciferase [2]; 0.031 M ethanolamine, 0.016 M phosphate, pH 7.0) was 59.2 10^9counts. The “Light Yield” value (luciferase [2]; 0.063 M ethanolamine, 0.031 M phosphate, pH 7.0) was 70.0 10^9counts, the “Light Yield” value (luciferase [2]; 0.125 M ethanolamine, 0.063 M phosphate, pH 7.0) was 96.2 10^9counts and the “Light Yield” value (luciferase [2]; 0.25 M ethanolamine, 0.125 M phosphate, pH 7.0) was 115.4 10^9counts. The “Light Yield” value (luciferase [2]; 0.5 M ethanolamine, 0.25 M phosphate, pH 7.0) was 124.8 10^9counts, the “Light Yield” value (luciferase [2]; 1.0 M ethanolamine, 0.5 M phosphate, pH 7.0) was 99.0 10^9counts and the “final concentration up to which light yield increases” value (luciferase [2]) was 0.5 M.

For O=S(O)(O)=S [Na2S2O3, sodium-thiosulfate], the “Light Yield” value (luciferase [2]; [10]) was 147.7 10^9counts.

For O=C(O)CNC(CO)(CO)CO [Tricine, N-[tris(hydroxymethyl)methyl]-glycine], the “pKa (D/° C.)” value [3] is given as “(−0.021) D/° C”.

In the case of NC(=O)CN(CC(=O)O)CC(=O)O [ADA, N-(2-acetamido)iminodiacetic acid], the “pKa (D/° C.)” value [3] is listed as −0.011 D/° C.

For CC(C)(COP(=O)(O)OP(=O)(O)OC[C@H]1O[C@@H](n2cnc3c(N)ncnc32)[C@H](O)[C@@H]1OP(=O)(O)O)[C@@H](O)C(=O)NCCC(=O)NCCS [CoA, coenzyme A], the “time for which increased light output is maintained” value (luciferase [4]) is given as “at least 60 seconds”.

For Triton™ X-100, the “greater light output over simple freeze-thaw lysis” value (luciferase [5]) is given as ≤ 25 fold.

In the case of O=C(O)CCP(CCC(=O)O)CCC(=O)O [TCEP, Tris(2-carboxyethyl) phosphine], the “Light Yield” value (luciferase [2]; [10]) is reported as 122.1 10^9counts.

For O=S(=O)(O)CCCN1CCN(CCO)CC1 [HEPPS (EPPS), 4-(2-hydroxyethyl)piperazine-1-propanesulfonic acid], the “pKa (D/° C.)” value [3] is given as −0.011 D/° C.

For O=S(=O)(O)CCCNC(CO)(CO)CO [TAPS, N-[tris(hydroxymethyl)methyl]-3-aminopropanesulfonic acid], the “pKa (D/° C.)” value [3] is listed as “(0.018) D/° C”.

For O=S(=O)(O)CCN(CCO)CCO [BES, N,N-bis(2-hydroxyethyl)-2-aminoethanesulfonic acid], the “pKa (D/° C.)” value [3] is listed as “(−0.016) D/° C”.

With tris(hydroxymethyl)aminomethane the “effect on total luminescence” value (luciferase [6]) was “enhances total luminescence”, the “Light Yield” value (luciferase [2]; 0.008 M Tris, 0.004 M phosphate, pH 7.0, 0-420 min) was 44.4 10^9counts and the “Light Yield” value (luciferase [2]; 0.016 M Tris, 0.008 M phosphate, pH 7.0, 0-420 min) was 52.9 10^9counts. The “Light Yield” value (luciferase [2]; 0.031 M Tris, 0.016 M phosphate, pH 7.0, 0-420 min) was 63.0 10^9counts, the “Light Yield” value (luciferase [2]; 0.063 M Tris, 0.031 M phosphate, pH 7.0, 0-420 min) was 80.4 10^9counts and the “Light Yield” value (luciferase [2]; 0.125 M Tris, 0.063 M phosphate, pH 7.0, 0-420 min) was 103.4 10^9counts. The “Light Yield” value (luciferase [2]; 0.25 M Tris, 0.125 M phosphate, pH 7.0, 0-420 min) was 126.8 10^9counts, the “Light Yield” value (luciferase [2]; 0.5 M Tris, 0.25 M phosphate, pH 7.0, 0-420 min) was 137.3 10^9counts and the “Light Yield” value (luciferase [2]; 1.0 M Tris, 0.5 M phosphate, pH 7.0, 0-420 min) was 123.8 10^9counts. For the same compound, the “final concentration up to which light yield increases” value (luciferase [2]) was 0.5 M and the “effect on total luminescence” value (luciferase [7]) was “inhibit total luminescence”.

For CC(C)N [isopropylamine], the pKa [8] is given as 10.82.

For O=S([O-])S(=O)[O-].[Na+].[Na+] [Na2S2O4, sodium-dithionite], the “Light Yield” value (luciferase [9]) was 128.4 10^9counts.

In the case of O=S(=O)(O)CCCN1CCOCC1 [MOPS, 3-morpholinopropanesulfonic acid], the “pKa (D/° C.)” value [3] is listed as −0.011 D/° C.

In the case of O=S(=O)(O)CCNC1CCCCC1 [CHES, 2-(cyclohexylamino)-1-ethanesulfonic acid], the “pKa at 20° C.” value [3] is given as 9.55 and the “pKa (D/° C.)” value [3] is given as “(−0.011) D/° C”.

For N.N.N.O=P(O)(O)O [Ammonium, ammonium-phosphate], the “Light Yield” value (luciferase [2]; 0.016 M ammonium, […] phosphate, pH 7.0, 28 mM MOPS) was 31.8 10^9counts, the “Light Yield” value (luciferase [2]; 0.031 M ammonium, 0.021 M phosphate, pH 7.0, 28 mM MOPS) was 43.7 10^9counts and the “Light Yield” value (luciferase [2]; 0.063 M ammonium, 0.043 M phosphate, pH 7.0, 28 mM MOPS) was 69.3 10^9counts. The “Light Yield” value (luciferase [2]; 0.125 M ammonium, 0.088 M phosphate, pH 7.0, 28 mM MOPS) was 83.2 10^9counts, the “Light Yield” value (luciferase [2]; 0.25 M ammonium, 0.175 M phosphate, pH 7.0, 28 mM MOPS) was 88.9 10^9counts and the “Light Yield” value (luciferase [2]; 0.5 M ammonium, 0.35 M phosphate, pH 7.0, 28 mM MOPS) was 113.1 10^9counts. The “Light Yield” value (luciferase [2]; 1.0 M ammonium, 0.7 M phosphate, pH 7.0, 28 mM MOPS) was 80.7 10^9counts, the “Light Yield” value (luciferase [2]; 2.0 M ammonium, 1.4 M phosphate, pH 7.0, 28 mM MOPS) was 44.6 10^9counts and the “concentration up to which light yield increases” value (luciferase [2]; with 350 mM of phosphate) was 500 mM.

In the case of O=S(=O)(O)CCCNC1CCCCC1 [CAPS, 3-(cyclohexylamino)-1-propanesulfonic acid], the “pKa (D/° C.)” value [3] is listed as “(0.032) D/° C”.

For O=S([O-])[O-].[Na+].[Na+] [Na2SO3, sodium-sulfite], the “Light Yield” value (luciferase [2]; [10]) was 136.8 10^9counts.

In the case of NC(=O)CNCCS(=O)(=O)O [ACES, N-(2-acetamido)-2-aminoethanesufonic acid], the “pKa at 20° C.” value [3] is listed as 6.88 and the “pKa (D/° C.)” value [3] is listed as −0.020 D/° C.

For O=C(O)CN(CCO)CCO [Bicine, N,N-bis(2-hydroxyethyl)glycine], the “pKa (D/° C.)” value [3] is listed as “(−0.018) D/° C”.
